{
  "source": "patent US9505728B2",
  "about": "“Triazolone compounds and uses thereof” (INCEPTION 2, INC., priority 2012, dated 2016)",
  "data": [
    {"target": "T1, Human PPARα (Homo sapiens, UniProt Q07869)", "T1 construct": "host or cells: proprietary non-human mammalian cells", "T1 sequence (Q07869 1-468)": "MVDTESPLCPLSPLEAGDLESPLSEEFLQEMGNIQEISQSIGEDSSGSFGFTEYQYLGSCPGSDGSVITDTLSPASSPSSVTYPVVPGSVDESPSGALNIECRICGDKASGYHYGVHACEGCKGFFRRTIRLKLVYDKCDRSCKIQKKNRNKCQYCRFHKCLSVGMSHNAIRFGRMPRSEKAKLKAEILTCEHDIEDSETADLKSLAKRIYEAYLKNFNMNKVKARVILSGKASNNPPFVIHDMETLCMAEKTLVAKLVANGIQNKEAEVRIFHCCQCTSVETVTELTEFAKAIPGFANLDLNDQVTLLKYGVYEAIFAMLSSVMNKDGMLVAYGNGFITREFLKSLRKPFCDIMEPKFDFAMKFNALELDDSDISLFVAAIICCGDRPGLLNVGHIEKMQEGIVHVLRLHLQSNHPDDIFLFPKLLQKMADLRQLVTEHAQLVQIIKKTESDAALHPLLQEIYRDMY", "assay": "Human PPARα Reporter Assay (luciferase)", "format": "cell-based", "settings": "human PPARα reporter cells, overnight incubation, antagonism; read-out: Luciferase IC50", "procedure,_shortened": "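Agonist or antagonist activity read as luciferase light from engineered reporter cells carrying human PPARα and a responsive reporter gene. Cells got compound immediately on dispensing, incubated overnight, then treatment media swapped for luciferase detection reagent.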", "units": {"IC50": "nM"}, "values": [
      {"compound": "CCn1c(CCCc2ccc(-c3cccc(NS(=O)(=O)c4ccc(-c5ccc(OC)cc5)cc4)n3)cc2)nn(Cc2ccc(C(C)(C)C)cc2)c1=O", "note": "[Example 74, 1-{[4-(tert-Butyl)phenyl]methyl}-4-ethyl-3-(3-{4-[6-({[4-(4-methoxyphenyl)phenyl]sulfonyl}amino)(2-pyridyl)]phenyl}propyl)-1,2,4-triazolin-5-one]", "IC50": 945},
      {"compound": "CCn1c(CCCc2ccc(-c3cnc(C4(F)COC4)nc3)cc2)nn(Cc2ccc(C(C)(C)C)cc2)c1=O", "note": "[Example 170, 1-(4-(tert-Butyl)benzyl)-4-ethyl-3-(3-(4-(2-(3-fluorooxetan-3-yl)pyrimidin-5-yl)phenyl)propyl)-1H-1,2,4-triazol-5(4H)-one]", "IC50": 41},
      {"compound": "CCn1c(CCCc2ccc(-c3ncc(OC)c(C(=O)O)n3)cc2)nn(Cc2ccc(C(C)(C)C)cc2)c1=O", "note": "[Example 181, 2-(4-(3-(1-(4-(tert-Butyl)benzyl)-4-ethyl-5-oxo-4,5-dihydro-1H-1,2,4-triazol-3-yl)propyl)phenyl)-5-methoxypyrimidine-4-carboxylic acid]", "IC50": 846},
      {"compound": "CC(C)(C)c1ccc(Cn2nc(CCCc3ccc(-c4ccc(C5(O)COC5)cc4)cc3)[nH]c2=O)cc1", "note": "[Example 167, 1-(4-(tert-Butyl)benzyl)-3-(3-(4%(3-hydroxyoxetan-3-yl)-[1,1′-biphenyl]-4-yl)propyl)-1H-1,2,4-triazol-5(4H)-one]", "IC50": 454},
      {"compound": "CCOc1ccc(-c2ccc(CCCc3nn(Cc4ccc(C(C)(C)C)cc4)c(=O)n3C)cc2)cc1CC(=O)O", "note": "[Example 95, 2-(4′-(3-(1-(4-(tert-Butyl)benzyl)-4-methyl-5-oxo-4,5-dihydro-1H-1,2,4-triazol-3-yl)propyl)-4-ethoxy-[1,1′-biphenyl]-3-yl)acetic acid]", "IC50": 15},
      {"compound": "CCn1c(CCCc2ccc(-c3ccc(OC)c(CC(=O)O)c3)cc2)nn(Cc2ccc(C3(F)COC3)cc2)c1=O", "note": "[Example 63]", "IC50": 562},
      {"compound": "CCn1c(CCCc2ccc(-c3ccc(C4(O)CCC4)cc3)cc2)nn(Cc2ccc(C(C)(C)C)cc2)c1=O", "note": "[Example 176, 1-(4-(tert-Butyl)benzyl)-4-ethyl-3-(3-(4′-(1-hydroxycyclobutyl)-[1,1′-biphenyl]-4-yl)propyl)-1H-1,2,4-triazol-5(4H)-one]", "IC50": 78},
      {"compound": "CCn1c(CCCc2ccc(-c3csc(CC(=O)O)c3)cc2)nn(Cc2ccc(C(C)(C)C)cc2)c1=O", "note": "[Example 39, 2-(4-(4-(3-(1-(4-(tert-Butyl)benzyl)-4-ethyl-5-oxo-4,5-dihydro-1H-1,2,4-triazol-3-yl)propyl)phenyl)thiophen-2-yl)acetic acid]", "IC50": 707},
      {"compound": "CCOc1ccc(-c2ccc(CCCc3nn(Cc4ccc(C(C)(C)C)cc4)c(=O)n3CC)cc2)cc1C1(C(=O)O)CC1", "note": "[Example 122, 1-(4′-(3-(1-(4-(tert-Butyl)benzyl)-4-ethyl-5-oxo-4,5-dihydro-1H-1,2,4-triazol-3-yl)propyl)-4-ethoxy-[1,1′-biphenyl]-3-yl)cyclopropanecarboxylic acid]", "IC50": 188},
      {"compound": "CCn1c(CCCc2ccc(-c3ccc(C(F)(F)F)c(N)n3)cc2)nn(Cc2ccc(C(C)(C)C)cc2)c1=O", "note": "[Example 161, 3-(3-{4-[6-Amino-5-(trifluoromethyl)(2-pyridyl)]phenyl}propyl)-1-{[4-(tert-butyl)phenyl]methyl}-4-ethyl-1,2,4-triazolin-5-one]", "IC50": 638},
      {"compound": "CCn1c(CCCc2ccc(-c3cccc(NS(=O)(=O)c4ccc(Cl)cc4)n3)cc2)nn(Cc2ccc(C(C)(C)C)cc2)c1=O", "note": "[Example 83, 1-{[4-(tert-Butyl)phenyl]methyl}-3-{3-[4-(6-{[(4-chlorophenyl)sulfonyl]amino}(2-pyridyl))phenyl]propyl}-4-ethyl-1,2,4-triazolin-5-one]", "IC50": 60},
      {"compound": "CCn1c(CCCc2ccc(-c3ccc(NS(=O)(=O)c4ccccc4)c(OC)n3)cc2)nn(Cc2ccc(C(C)(C)C)cc2)c1=O", "note": "[Example 98, 1-{[4-(tert-Butyl)phenyl]methyl}-4-ethyl-3-[3-(4-{6-methoxy-5-[(phenylsulfonyl)amino](2-pyridyl)}phenyl)propyl]-1,2,4-triazolin-5-one]", "IC50": 264},
      {"compound": "CCn1c(CCCc2ccc(-c3cccc(C4CC4C(=O)O)c3)cc2)nn(Cc2ccc(C(C)(C)C)cc2)c1=O", "note": "(stereo not drawn) [Example 35, 2-(4′-(3-(1-(4-(tert-Butyl)benzyl)-4-ethyl-5-oxo-4,5-dihydro-1H-1,2,4-triazol-3-yl)propyl)-[1,1′-biphenyl]-3-yl)cyclopropanecarboxylic acid]", "IC50": 1120},
      {"compound": "CCn1c(CCCc2ccc(-c3ccc(OC)c(CC(=O)O)c3)c(O)c2)nn(Cc2ccc(C(C)(C)C)cc2)c1=O", "note": "[Example 145, 2-(4′-(3-(1-(4-(tert-Butyl)benzyl)-4-ethyl-5-oxo-4,5-dihydro-1H-1,2,4-triazol-3-yl)propyl)-2′-hydroxy-4-methoxy-[1,1′-biphenyl]-3-yl) acetic acid]", "IC50": 692},
      {"compound": "CCn1c(CCCc2ccc(-c3nc(NC(=O)OC(C)(C)C)co3)cc2)nn(Cc2ccc(C(C)(C)C)cc2)c1=O", "note": "[Example 25, tert-Butyl (2-(4-(3-(1-(4-(tert-butyl)benzyl)-4-ethyl-5-oxo-4,5-dihydro-1H-1,2,4-triazol-3-yl)propyl)phenyl)oxazol-4-yl)carbamate]", "IC50": 184},
      {"compound": "CCn1c(CCCc2ccc(-c3cccc(NS(=O)(=O)N(C)C)c3)cc2)nn(Cc2ccc(C(C)(C)C)cc2)c1=O", "note": "[Example 107, 3-{3-[4-(3-{[(Dimethylamino)sulfonyl]amino}phenyl)phenyl]propyl}-1-{[4-(tert-butyl)phenyl]methyl}-4-ethyl-1,2,4-triazolin-5-one]", "IC50": 683},
      {"compound": "CCn1c(CCCc2ccc(-c3cccc(CC(=O)O)c3)cc2)nn(Cc2ccc(C(C)(C)C)c(C3CC3)c2)c1=O", "note": "[Example 85, 2-(4′-(3-(1-(3-Cyclopropyl-4-(tert-butyl)benzyl)-4-ethyl-5-oxo-4,5-dihydro-1H-1,2,4-triazol-3-yl)propyl)-[1,1′-biphenyl]-3-yl)acetic acid]", "IC50": 662},
      {"compound": "CCC(=O)NS(=O)(=O)Cc1cccc(-c2ccc(CCCc3nn(Cc4ccc(C(C)(C)C)cc4)c(=O)n3CC)cc2)c1", "note": "[Example 116, N-(((4′-(3-(1-(4-(tert-Butyl)benzyl)-4-ethyl-5-oxo-4,5-dihydro-1H-1,2,4-triazol-3-yl)propyl)-[1,1′-biphenyl]-3-yl)methyl)sulfonyl)propionamide]", "IC50": 987},
      {"compound": "CCn1c(CCCc2ccc(-c3ccc(OC)c(CNS(=O)(=O)Cc4ccccc4)c3)cc2)nn(Cc2ccc(C(C)(C)C)cc2)c1=O", "note": "[Example 188, 1-{[4-(tert-Butyl)phenyl]methyl}-4-ethyl-3-(3-{4-[4-methoxy-3-({[benzylsulfonyl]amino}methyl)phenyl]phenyl}propyl)-1,2,4-triazolin-5-one]", "IC50": 430},
      {"compound": "CCn1c(CCCc2ccc(-c3cccc(C(=O)NS(=O)(=O)c4ccccc4)c3)cc2)nn(Cc2ccc(C(C)(C)C)cc2)c1=O", "note": "[Example 9, 4′-(3-(1-(4-(tert-Butyl)benzyl)-4-ethyl-5-oxo-4,5-dihydro-1H-1,2,4-triazol-3-yl)propyl)-N-(phenylsulfonyl)-[1,1′-biphenyl]-3-carboxamide]", "IC50": 363},
      {"compound": "CCn1c(CCCc2ccc(-c3cccc(NC(=O)C4CC4)n3)cc2)nn(Cc2ccc(C(C)(C)C)cc2)c1=O", "note": "[Example 102, N-(6-{4-[3-(1-{[4-(tert-Butyl)phenyl]methyl}-4-ethyl-5-oxo(1,2,4-triazolin-3-yl))propyl]phenyl}(2-pyridyl))cyclopropylcarboxamide]", "IC50": 695},
      {"compound": "CCn1c(CCCc2ccc(-c3ccc(C)c(C(=O)O)n3)cc2)nn(Cc2ccc(C(C)(C)C)cc2)c1=O", "note": "[Example 165, 6-(4-(3-(1-(4-(tert-Butyl)benzyl)-4-ethyl-5-oxo-4,5-dihydro-1H-1,2,4-triazol-3-yl)propyl)phenyl)-3-methylpicolinic acid]", "IC50": 202},
      {"compound": "CCn1c(CCCc2ccc(-c3ccc(CC(=O)O)c(OC)c3)cc2)nn(Cc2ccc(C(C)(C)C)cc2)c1=O", "note": "[Example 199, 2-(4′-(3-(1-(4-(tert-Butyl)benzyl)-4-ethyl-5-oxo-4,5-dihydro-1H-1,2,4-triazol-3-yl)propyl)-3-methoxy-[1,1′-biphenyl]-4-yl)acetic acid]", "IC50": 292},
      {"compound": "CCOc1ccc(-c2ccc(CCCc3nn(Cc4ccc(C(C)(C)C)cc4)c(=O)n3CC)cc2)cc1CC(=O)O", "note": "[Example 38, 2-(4′-(3-(1-(4-(tert-Butyl)benzyl)-4-ethyl-5-oxo-4,5-dihydro-1H-1,2,4-triazol-3-yl)propyl)-4-ethoxy-[1,1′-biphenyl]-3-yl)acetic acid]", "IC50": 10},
      {"compound": "CCn1c(CCCc2ccc(-c3cccc(CC(=O)O)c3F)cc2)nn(Cc2ccc(C(C)(C)C)cc2)c1=O", "note": "[Example 18, 2-(4′-(3-(1-(4-(tert-Butyl)benzyl)-4-ethyl-5-oxo-4,5-dihydro-1H-1,2,4-triazol-3-yl)propyl)-2-fluoro-[1,1′-biphenyl]-3-yl)acetic acid]", "IC50": 1420},
      {"compound": "CCn1c(CCCc2ccc(-c3ccc(C)c(NS(=O)(=O)c4ccccc4)c3)cc2)nn(Cc2ccc(C(C)(C)C)cc2)c1=O", "note": "[Example 152, 1-{[4-(tert-Butyl)phenyl]methyl}-4-ethyl-3-[3-(4-{4-methyl-3-[(phenylsulfonyl)amino]phenyl}phenyl)propyl]-1,2,4-triazolin-5-one]", "IC50": 160},
      {"compound": "CCn1c(CCCc2ccc(-c3cc(OC)c(NS(=O)(=O)c4ccccc4)cn3)cc2)nn(Cc2ccc(C(C)(C)C)cc2)c1=O", "note": "[Example 112, 1-{[4-(tert-Butyl)phenyl]methyl}-4-ethyl-3-[3-(4-{4-methoxy-5-[(phenylsulfonyl)amino](2-pyridyl)}phenyl)propyl]-1,2,4-triazolin-5-one]", "IC50": 816}
    ]}
  ]
}
